From the supplement of paper PMC11061612

Legend:
Assay in all cases: Bliss excess, mean over the matrix (fraction); higher = more synergy
[1] = tested on: SW780 (Bladder Carcinoma)
In short: (§1)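 Cell lines in DMEM/F12 or RPMI with 10% FBS were plated in 1536-well plates, held 24 hours at 37°C, 5% CO2, then given two-drug dose matrices for 72 hours (DMSO typically 0.2%). Viability was read by CellTiter-Glo 2.0 luminescence and scaled as inhibition from 0 (vehicle wells) to 1 (blank wells). Combination Emax is the second-highest inhibition in the matrix; Bliss excess is observed combination effect minus expected EA + EB − EA·EB, EA and EB being single-agent effects.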

[2] = tested on: SW1783 (Low Grade Glioma)
In short: as §1

[3] = tested on: COR-L23 (Non-Small Cell Lung Carcinoma)
In short: as §1

[4] = tested on: SK-N-FI (Neuroblastoma)
In short: as §1

[5] = tested on: CFPAC-1 (Pancreatic Carcinoma)
In short: as §1

[6] = tested on: 697 (B-Lymphoblastic Leukemia)
In short: as §1

[7] = tested on: SNU-C5 (Colorectal Carcinoma)
In short: as §1

[8] = tested on: KARPAS-620 (Plasma Cell Myeloma)
In short: as §1

[9] = tested on: TE-5 (Esophageal Squamous Cell Carcinoma)
In short: as §1

[10] = tested on: NCI-H1694 (Small Cell Lung Carcinoma)
In short: as §1

[11] = tested on: RH-1 (Ewing's Sarcoma)
In short: as §1

[12] = tested on: MDA-MB-231 (Breast Carcinoma)
In short: as §1

[13] = tested on: ES7 (Ewing's Sarcoma)
In short: as §1

[14] = tested on: JiyoyeP-2003 (Burkitt's Lymphoma)
In short: as §1

[15] = tested on: NCI-H2595 (Mesothelioma)
In short: as §1

[16] = tested on: C3A (Hepatocellular Carcinoma)
In short: as §1

[17] = tested on: KARPAS-1106P (B-Cell Non-Hodgkin's Lymphoma)
In short: as §1

[18] = tested on: LU-99A (Non-Small Cell Lung Carcinoma)
In short: as §1

[19] = tested on: DSH1 (Bladder Carcinoma)
In short: as §1

[20] = tested on: KM-H2 (Hodgkin's Lymphoma)
In short: as §1

Row | SMILES | Bliss excess [1] | Bliss excess [2] | Bliss excess [3] | Bliss excess [4] | Bliss excess [5] | Bliss excess [6] | Bliss excess [7] | Bliss excess [8] | Bliss excess [9] | Bliss excess [10] | Bliss excess [11] | Bliss excess [12] | Bliss excess [13] | Bliss excess [14] | Bliss excess [15] | Bliss excess [16] | Bliss excess [17] | Bliss excess [18] | Bliss excess [19] | Bliss excess [20]
1 | COc1nnc2ccc(N3CCC(c4ccc(OCCN5CCN(C)C(=O)[C@H]5C)cc4)CC3)nn12 [AZD5153] + CC1(C)CCC(CN2CCN(c3ccc(C(=O)NS(=O)(=O)c4ccc(NCC5CCOCC5)c([N+](=O)[O-])c4)c(Oc4cnc5[nH]ccc5c4)c3)CC2)=C(c2ccc(Cl)cc2)C1 [Venetoclax] (first compound max 1 µM, 7x7, partner max 1 µM) | -0.0071 | -0.0347 | -0.0504 | -0.0581 | -0.0228 | -0.0358 | -0.077 | -0.0637 | -0.0087 | 0.0045 | -0.0391 | -0.0755 | -0.0694 | -0.0302 | 0.0185 | -0.105 | -0.0308 | -0.0853 | -0.0524 | 0.0245
2 | COc1nnc2ccc(N3CCC(c4ccc(OCCN5CCN(C)C(=O)[C@H]5C)cc4)CC3)nn12 [AZD5153] + CCN(CCO)CCCOc1ccc2c(Nc3cc(CC(=O)Nc4cccc(F)c4)[nH]n3)ncnc2c1 [AZD2811] (first compound max 1 µM, 7x7, partner max 1 µM) | -0.0766 | -0.038 | -0.0551 | -0.0579 | -0.088 | -0.0118 | -0.0541 | -0.0158 | -0.0124 | 0.0041 | 0.0025 | -0.0353 | -0.0372 | 0.0351 | -0.0227 | -0.0567 | 0.019 | -0.0244 | -0.0802 | 0
3 | COc1nnc2ccc(N3CCC(c4ccc(OCCN5CCN(C)C(=O)[C@H]5C)cc4)CC3)nn12 [AZD5153] + C[C@@H]1COCCN1C2=NC(=NC(=C2)C3(CC3)[S@](=N)(=O)C)C4=C5C=CNC5=NC=C4 [AZD6738] (first compound max 1 µM, 7x7, partner max 10 µM) | -0.0052 | 0.0235 | -0.0016 | 0.0549 | 0.015 | -0.0106 | 0.0359 | -0.0429 | -0.0316 | 0.008 | 0.0071 | -0.0477 | -0.0245 | -0.047 | 0.0346 | 0.0348 | -0.0455 | -0.0213 | 0.0321 | -0.008
4 | COc1nnc2ccc(N3CCC(c4ccc(OCCN5CCN(C)C(=O)[C@H]5C)cc4)CC3)nn12 [AZD5153] + Cc1c2c(nn1C)CSCc1cc(n(C)n1)CSc1cc(c3ccccc3c1)OCCCc1c(C(=O)O)n(C)c3c-2c(Cl)ccc13 [AZD5991] (first compound max 1 µM, 7x7, partner max 1 µM) | -0.0187 | -0.0024 | -0.0296 | -0.0656 | -0.0208 | -0.0558 | -0.0417 | -0.0115 | -0.0158 | 0.0992 | 0.0034 | -0.057 | 0.0052 | -0.0218 | 0.015 | -0.0262 | 0.0005 | 0.0087 | 0.0112 | -0.0495
5 | COc1nnc2ccc(N3CCC(c4ccc(OCCN5CCN(C)C(=O)[C@H]5C)cc4)CC3)nn12 [AZD5153] + Cn1cnc2c(F)c(Nc3ccc(Br)cc3Cl)c(C(=O)NOCCO)cc21 [Selumetinib] (first compound max 1 µM, 7x7, partner max 10 µM) | -0.058 | -0.0214 | -0.0516 | -0.0386 | -0.0149 | -0.0389 | -0.0116 | 0.112 | 0.0184 | -0.0641 | -0.0267 | 0.0516 | -0.0502 | -0.0117 | -0.0604 | -0.0272 | 0.013 | -0.0118 | -0.0458 | -0.0839
6 | Cc1c2c(nn1C)CSCc1cc(n(C)n1)CSc1cc(c3ccccc3c1)OCCCc1c(C(=O)O)n(C)c3c-2c(Cl)ccc13 [AZD5991] + C1CN(CCC1(C(=O)N[C@@H](CCO)C2=CC=C(C=C2)Cl)N)C3=NC=NC4=C3C=CN4 [Capivasertib] (first compound max 1 µM, 7x7, partner max 3 µM) | -0.011 | -0.0145 | -0.0161 | 0.0211 | 0.0021 | -0.034 | 0.0007 | -0.0097 | 0.0141 | -0.0142 | 0.0157 | -0.0495 | 0.112 | 0.0371 | 0.0093 | -0.0318 | 0.0188 | -0.0247 | 0.001 | -0.0052
7 | Cc1c2c(nn1C)CSCc1cc(n(C)n1)CSc1cc(c3ccccc3c1)OCCCc1c(C(=O)O)n(C)c3c-2c(Cl)ccc13 [AZD5991] + CC1(C)CCC(CN2CCN(c3ccc(C(=O)NS(=O)(=O)c4ccc(NCC5CCOCC5)c([N+](=O)[O-])c4)c(Oc4cnc5[nH]ccc5c4)c3)CC2)=C(c2ccc(Cl)cc2)C1 [Venetoclax] (first compound max 1 µM, 7x7, partner max 1 µM) | 0.0215 | -0.0164 | -0.0178 | 0.034 | -0.0112 | -0.0564 | -0.0164 | 0.119 | 0.037 | 0.076 | 0.0491 | 0.0126 | 0.102 | 0.0249 | -0.0384 | -0.0519 | -0.0146 | -0.0555 | 0.0397 | -0.0094
8 | Cc1c2c(nn1C)CSCc1cc(n(C)n1)CSc1cc(c3ccccc3c1)OCCCc1c(C(=O)O)n(C)c3c-2c(Cl)ccc13 [AZD5991] + CCN(CCO)CCCOc1ccc2c(Nc3cc(CC(=O)Nc4cccc(F)c4)[nH]n3)ncnc2c1 [AZD2811] (first compound max 1 µM, 7x7, partner max 1 µM) | 0.0188 | -0.0135 | 0.0013 | 0.0054 | -0.0148 | -0.0039 | 0.0247 | 0.066 | -0.0313 | 0.0939 | -0.0457 | 0.0604 | 0.0267 | 0.0917 | 0.0141 | 0.0494 | 0.0744 | 0.0252 | 0.0492 | 0.0654
9 | Cc1c2c(nn1C)CSCc1cc(n(C)n1)CSc1cc(c3ccccc3c1)OCCCc1c(C(=O)O)n(C)c3c-2c(Cl)ccc13 [AZD5991] + CN(C)CCCOc1ccc(-c2ccc3ncc4c(c3c2)n(C2CCOCC2)c(=O)n4C)cn1 [AZD0156] (first compound max 1 µM, 7x7, partner max 1 µM) | -0.0103 | -0.0074 | -0.0086 | -0.0036 | 0.0066 | -0.0468 | 0.0157 | 0.02 | -0.0081 | 0.0033 | 0.0081 | -0.0133 | 0.0036 | -0.0359 | -0.0082 | -0.0266 | -0.0352 | -0.0175 | -0.013 | -0.0139
10 | Cc1c2c(nn1C)CSCc1cc(n(C)n1)CSc1cc(c3ccccc3c1)OCCCc1c(C(=O)O)n(C)c3c-2c(Cl)ccc13 [AZD5991] + C[C@@H]1COCCN1C2=NC(=NC(=C2)C3(CC3)[S@](=N)(=O)C)C4=C5C=CNC5=NC=C4 [AZD6738] (first compound max 1 µM, 7x7, partner max 10 µM) | 0.0324 | 0.0272 | -0.0121 | -0.0554 | 0.0442 | 0.0058 | -0.011 | 0.0243 | -0.0294 | 0.0064 | -0.0221 | 0.0132 | 0.0521 | 0.0159 | -0.0124 | 0.0412 | 0.0182 | -0.0152 | 0.0241 | 0.0236
11 | Cc1c2c(nn1C)CSCc1cc(n(C)n1)CSc1cc(c3ccccc3c1)OCCCc1c(C(=O)O)n(C)c3c-2c(Cl)ccc13 [AZD5991] + Cc1cc2ncnn2cc1Nc1ncc2c(n1)n(C1CCOCC1)c(=O)n2C [AZD7648] (first compound max 1 µM, 7x7, partner max 10 µM) | -0.0193 | -0.0408 | -0.0076 | -0.0289 | -0.002 | -0.0603 | -0.0085 | 0.0308 | -0.0257 | -0.0059 | -0.0036 | -0.0397 | -0.028 | 0.0725 | 0.0034 | -0.0312 | -0.0016 | -0.0397 | -0.095 | 0.0203
12 | Cc1c2c(nn1C)CSCc1cc(n(C)n1)CSc1cc(c3ccccc3c1)OCCCc1c(C(=O)O)n(C)c3c-2c(Cl)ccc13 [AZD5991] + Cn1cnc2c(F)c(Nc3ccc(Br)cc3Cl)c(C(=O)NOCCO)cc21 [Selumetinib] (first compound max 1 µM, 7x7, partner max 3 µM) | 0.0631 | -0.0782 | -0.0051 | -0.0042 | 0.0044 | -0.0462 | -0.0107 | 0.0919 | -0.0146 | -0.0048 | -0.0127 | 0.0135 | 0.0375 | 0.0039 | 0.0101 | -0.0476 | 0.0497 | -0.0363 | -0.0881 | 0.0029
13 | C[C@@H]1COCCN1c1cc(C2([S@](C)(=N)=O)CC2)nc(-c2ccnc3[nH]ccc23)n1 [AZD6738] + O=C(c1cc(Cc2n[nH]c(=O)c3ccccc23)ccc1F)N1CCN(C(=O)C2CC2)CC1 [Olaparib] (first compound max 10 µM, 7x7, partner max 10 µM) | -0.0047 | 0.0376 | -0.034 | -0.0581 | -0.0069 | 0.0073 | -0.0258 | -0.0168 | -0.021 | 0.0089 | 0.0873 | -0.0335 | 0.0469 | 0.0005 | -0.0073 | -0.0039 | -0.0236 | -0.0289 | -0.0205 | 0.024
14 | Cc1cc2ncnn2cc1Nc1ncc2c(n1)n(C1CCOCC1)c(=O)n2C [AZD7648] + C=CCn1c(=O)c2cnc(Nc3ccc(N4CCN(C)CC4)cc3)nc2n1-c1cccc(C(C)(C)O)n1 [AZD1775] (first compound max 10 µM, partner max 1 µM) | 0.0146 | 0.0078 | -0.0588 | -0.0415 | 0.0525 | 0 | 0.0457 | -0.0493 | -0.0386 | -0.0234 | 0.016 | 0.0218 | -0.0044 | 0.0246 | -0.0242 | 0.0187 | -0.0202 | -0.0262 | 0.0281 | -0.0201
